Consider ten compounds from patent publication US7692014B2, “Inhibitors of the HIV integrase enzyme” (Pfizer, Inc., priority 2004, dated 2010).

Like-named read-outs stand apart in the source and are kept apart here.

Experiment [1] has as its system RF strain of HIV-1 in CEM-SS cells. Kind of experiment: HIV-1 cell protection assay (XTT dye reduction). Format: cell-based. The following applies: Human immunodeficiency virus 1, CEM-SS, 144 h, HIV-1 RF, six days. As to the method:
HIV-1 Cell Protection Assay
The antiviral activities of potential modulator compounds (test compounds) were determined in HIV-1 cell protection assays using the RF strain of HIV-1, CEM-SS cells, and the XTT dye reduction method (Weislow, O. S. et al., J. Natl. Cancer Inst. 81: 577-586 (1989)). Subject cells were infected with HIV-1 RF virus at an moi of 0.025 to 0.819 or mock infected with medium only and added at 2×10^4 cells per well into 96 well plates containing half-log dilutions of test compounds. Six days later, 50 μl of XTT solution (1 mg/ml XTT tetrazolium and […] phenazine methosulfate) were added to the wells and the plates were reincubated for four hours. Viability, as determined by the amount of XTT formazan produced, was quantified spectrophotometrically by absorbance at 450 nm.
Data from CPE assays were expressed as the percent of formazan produced in compound-treated cells compared to formazan produced in wells of uninfected, compound-free cells. […] The therapeutic index was calculated by dividing the cytotoxicity (CC50) by the antiviral activity (EC50).
A general note: Tetrazolium assays rely on reduction of a dye to a coloured formazan, in cell work by metabolically active cells.

In experiment [2] the target is T1, Full-length wild type HIV-1 integrase (SF1) (Human immunodeficiency virus type 1 group M subtype B, UniProt P04585).
T1 construct: made in house; host or cells: E. coli BL21 (DE3), pET24a vector
Kind of experiment: Integrase strand-transfer scintillation proximity assay. Format: biochemical. The source says: Integrase Strand-Transfer Scintillation Proximity Assay Oligonucleotides
The annealed product represents preprocessed viral ds-DNA derived from the LTR U5 sequence of the viral genome. A ds-DNA control to test for non-specific interactions was made using a 3′ di-deoxy derivative of oligonucleotide #1 annealed to oligonucleotide #2. The CA overhang at the 5′ end of the non-biotinylated strand of the ds-DNA was created artificially by using a complimentary DNA oligonucleotide shortened by 2 base pairs. This configuration eliminates the requisite 3′ processing step of the integrase enzyme prior to the strand-transfer mechanism.
Host ds-DNA was prepared as an unlabeled and [^3H]-thymidine labeled product from annealed oligonucleotide #3—5-[…]-3′ (SEQ ID NO: 3), and oligonucleotide #4—5′-[…]-3′ (SEQ ID NO: 4), both synthesized by TriLink BioTechnologies, Inc. (San Diego, Calif.). The annealed product had overhanging 3′ ends of poly(dA). […] The radiolabeled product was purified using a NENSORB cartridge and stored in stabilized aqueous solution (PerkinElmer).
Reagents: Streptavidin-coated polyvinyltoluene (PVT) SPA beads were purchased from Amersham Biosciences (Piscataway, N.J.). Cesium chloride was purchased from Shelton Scientific, Inc. (Shelton, Conn.). White, polystyrene, flat-bottom, non-binding surface, 96-well plates were purchased from Corning. All other buffer components were purchased from Sigma (St. Louis, Mo.) unless otherwise indicated. Enzyme Construction: Full-length wild type HIV-1 integrase (SF1) sequence (amino acids 1-288) was constructed in a pET24a vector (Novagen, Madison, Wis.). […] Enzyme Purification: Full length wild-type HIV Integrase was expressed in E.coli BL21 (DE3) cells and induced with 1 mM isopropyl-1 thio-β-D-galactopyranoside (IPTG) when cells reached an optical density between 0.8-1.0 at 600 nm. Cells were lysed by microfluidation in 50 mM HEPES pH 7.0, 75 mM NaCl, 5 mM DTT, 1 mM 4-(2-Aminoethyl)benzenesulfonylfluoride HCl (AEBSF). Lysate was then centrifuged 20 minutes at 11 k rpm in GSA rotor in Sorvall RC-5B at 4° C. Supernant was discarded and pellet resuspended in 50 mM HEPES pH 7.0, 750 mM NaCl, 5 mM DTT, 1 mM AEBSF and homogenized in a 40 mL Dounce homogenizer for 20 minutes on ice. Homogenate was then centrifuged 20 minutes at 11 k rpm in SS34 rotor in Sorvall RC-5B at 4° C. Supernant was discarded and pellet resuspended in 50 mM HEPES pH 7.0, 750 mM NaCl, 25 mM CHAPS, 5 mM DTT, 1 mM AEBSF. Preparation was then centrifuged 20 minutes at 11 k rpm in SS34 rotor in Sorvall RC-5B at 4° C.
Supernant was then diluted 1:1 with 50 mM HEPES pH 7.0, 25 mM CHAPS, 1 mM DTT, 1 mM AEBSF and loaded onto a Q-Sepharose column pre-equilibrated with 50 mM HEPES, pH 7.0, 375 mM NaCl, 25 mM CHAPS, 1 mM DTT, 1 mM AEBSF. The flow through peak was collected and NaCl diluted to 0.1 M with 50 mM HEPES pH 7.0, 25 mM CHAPS, 1 mM DTT, 0.5 mM AEBSF and loaded onto a SP-Sepharose column pre-equilibrated with 50 mM HEPES pH 7.0, 100 mM NaCl, 25 mM CHAPS, 1 mM DTT, 0.5 mM AEBSF. After washing the column with the equilibration buffer, a 100 to 400 mM NaCl gradient was run. The eluted integrase was concentrated and run on a S-300 gel diffusion column using 50 mM HEPES pH 7.0, 500 mM NaCl, 25 mM CHAPS, 1 mM DTT, 0.5 mM AEBSF. […] All columns were run in a 4° C. cold room.
Viral DNA Bead Preparation: Streptavidin-coated SPA beads were suspended to 20 mg/mL in 25 mM 3-morpholinopropanesulfonic acid (MOPS) (pH 7.2) and 1.0% NaN3.
On the technique in general: In a scintillation proximity assay essentially only radioactivity close to the scintillant gives light.

Where [3] appears, read: integrase strand-transfer SPA, read-out: IC50.

The EC50 is the concentration giving half of the maximal effect. A lower EC50 goes with higher potency in that assay. Usually IC50 stands for the concentration that inhibits the measured activity by half. On to `COCCOCc1cn(Cc2ccc(F)cc2)c2cnc3c(=O)n(O)ccc3c12` [Example 9, 3-(4-fluorobenzyl)-7-hydroxy-1-[(2-methoxyethoxy)methyl]-3,7-dihydro-6H-pyrrolo[2,3-c]-1,7-naphthyridin-6-one], for which, in experiment [1], the EC50 amounted to 0.53 nM. The IC50 in experiment [2] (setting [3]) amounted to 15 nM. `C[C@@H](OCc1cn(Cc2ccc(F)cc2)c2cnc3c(=O)n(O)ccc3c12)c1ccccc1` [Example 38, 3-(4-fluorobenzyl)-7-hydroxy-1-{[(1R)-1-phenylethoxy]methyl}-3,7-dihydro-6H-pyrrolo[2,3-c]-1,7-naphthyridin-6-one]: the EC50 in experiment [1] stood at 0.3 nM. Further, the IC50 in experiment [2] (setting [3]) worked out at 120 nM. As for `CCS(=O)(=O)N1CCN(Cc2cn(Cc3ccc(F)cc3)c3cnc4c(=O)n(O)ccc4c23)CC1` [Example 52, 1-{[4-(ethylsulfonyl)piperazin-1-yl]methyl}-3-(4-fluorobenzyl)-7-hydroxy-3,7-dihydro-6H-pyrrolo[2,3-c]-1,7-naphthyridin-6-one], the IC50 in experiment [2] (setting [3]) turned out to be 10.5 nM. On the same count and under the same terms, for `O=c1c2ncc3c(c(CN4CCC(O)CC4)cn3Cc3ccc(F)cc3)c2ccn1O` [Example 53, 3-(4-fluorobenzyl)-7-hydroxy-1-[(4-hydroxypiperidin-1-yl)methyl]-3,7-dihydro-6H-pyrrolo[2,3-c]-1,7-naphthyridin-6-one] the value was 7 nM. `CN(Cc1ccccc1)Cc1cn(Cc2ccc(F)cc2)c2cnc3c(=O)n(O)ccc3c12` [Example 54, 1-{[benzyl(methyl)amino]methyl}-3-(4-fluorobenzyl)-7-hydroxy-3,7-dihydro-6H-pyrrolo[2,3-c]-1,7-naphthyridin-6-one] showed an IC50 in experiment [2] (IC50, integrase strand-transfer SPA) of 13.5 nM. For `O=c1c2ncc3c(c(CN4CCN5C[C@H](O)CC5C4)cn3Cc3ccc(F)cc3)c2ccn1O` (stereo partly drawn) [Example 55, 3-(4-fluorobenzyl)-7-hydroxy-1-{[(7R)-7-hydroxyhexahydropyrrolo [1,2-a]pyrazin-2(1H)-yl]methyl}-3,7-dihydro-6H-pyrrolo[2,3-c]-1,7-naphthyridin-6-one], the IC50 in experiment [2] (setting [3]) is 7 nM. As to `O=C1NC[C@@H]2CCN(Cc3cn(Cc4ccc(F)cc4)c4cnc5c(=O)n(O)ccc5c34)C[C@H]12` [Example 56, 3-(4-fluorobenzyl)-7-hydroxy-1-{[(3aR,7aR)-3-oxooctahydro-5H-pyrrolo[3,4-c]pyridin-5-yl]methyl}-3,7-dihydro-6H-pyrrolo[2,3-c]-1,7-naphthyridin-6-one], the IC50 in experiment [2] (setting [3]) turned out to be 11.5 nM. `O=c1c2ncc3c(c(CN4CCOCC4)cn3Cc3ccc(F)cc3)c2ccn1O` [Example 57, 3-(4-fluorobenzyl)-7-hydroxy-1-(morpholin-4-ylmethyl)-3,7-dihydro-6H-pyrrolo[2,3-c]-1,7-naphthyridin-6-one]: the IC50 in experiment [2] (setting [3]) was determined as 7 nM. Same read-out and setting: for `O=c1c2ncc3c(c(CN4CCN(CCN5CCOCC5)CC4)cn3Cc3ccc(F)cc3)c2ccn1O` [Example 58, 3-(4-fluorobenzyl)-7-hydroxy-1-{[4-(2-morpholin-4-ylethyl)piperazin-1-yl]methyl}-3,7-dihydro-6H-pyrrolo[2,3-c]-1,7-naphthyridin-6-one] the value was 22 nM. For `CN(Cc1cnn(-c2ccccc2)c1)Cc1cn(Cc2ccc(F)cc2)c2cnc3c(=O)n(O)ccc3c12` [Example 59, 3-(4-fluorobenzyl)-7-hydroxy-1-({methyl[(1-phenyl-1H-pyrazol-4-yl)methyl]amino}methyl)-3,7-dihydro-6H-pyrrolo[2,3-c]-1,7-naphthyridin-6-one], the IC50 in experiment [2] (setting [3]) came out at 19 nM.
